Laboratory results published in US20240132484A1, “BROAD SPECTRUM ANTIVIRAL COMPOUNDS TARGETING THE SKI COMPLEX” (priority 2020, published 2024).
“And” between values parts separate entries of the source, which are not always exact repeats. Equal values may be shown once. Read-outs that look alike come from different tables or passages of the source.

What was measured:
cells (nuclei count) = conditions: for Relative cell count to DMSO controls, Average 1 μM / Relative cell count to DMSO controls, Average 5 μM / Relative cell count to DMSO controls, Average 10 μM / Relative cell count to DMSO controls, Average 25 μM / Relative cell count to DMSO controls, Average 50 μM: toxicity data, 100=DMSO control; for Toxicity Data, Average, Mean: average of Exp 1-3 (SMW475, SMW477, SMW478); for Relative cell count to DMSO controls, Average (for correlation analysis): average value over the 5 tested concentrations (1 to 50 uM)
SARS2 = format: cell-based, SARS-CoV-2; conditions: for Percentage Infection Relative to Appropriate DMSO Control with Avg Background Subtraction: Greiner Celigo plates; for Percentage Inhibition Average 1 μM / Screening data (Relative infection to DMSO controls) Average 1 μM: SARS2, 1 μM; for Screening data (Relative infection to DMSO controls) Average 1 μM / Screening data (Relative infection to DMSO controls) Average 5 μM / Screening data (Relative infection to DMSO controls) Average 10 μM / Screening data (Relative infection to DMSO controls) Average 25 μM / Screening data (Relative infection to DMSO controls) Average 50 μM / Average (relative infection to DMSO over the 5 tested concentrations): 100=DMSO control; for Percentage Inhibition Average 5 μM / Screening data (Relative infection to DMSO controls) Average 5 μM: SARS2, 5 μM; for Percentage Inhibition Average 10 μM / Screening data (Relative infection to DMSO controls) Average 10 μM: SARS2, 10 μM; for Percentage Inhibition Average 25 μM / Screening data (Relative infection to DMSO controls) Average 25 μM: SARS2, 25 μM; for Percentage Inhibition Average 50 μM / Screening data (Relative infection to DMSO controls) Average 50 μM: SARS2, 50 μM; for Average (relative infection to DMSO over the 5 tested concentrations): SARS2, average over 1 to 50 uM; for Infection Data, Average, Mean: average of Exp 1-3 (SMW475, SMW477, SMW478)

## CCN(CC)CCN(Cc1ccccc1)Cc1ccccn1 [SILCS33]
Cells (nuclei count)
  Relative cell count to DMSO controls, Average 1 μM: 118.72
  Relative cell count to DMSO controls, Average 5 μM: 94.18
  Relative cell count to DMSO controls, Average 10 μM: 80.17
  Relative cell count to DMSO controls, Average 25 μM: 85.8
  Relative cell count to DMSO controls, Average 50 μM: 59.2
  Relative cell count to DMSO controls, Average (for correlation analysis): 87.61
Cells (nuclei count); n 9, 1 uM
  Toxicity Data, Average, Mean: 118.72%
Cells (nuclei count); n 9, 5 uM
  Toxicity Data, Average, Mean: 94.18%
Cells (nuclei count); n 9, 10 uM
  Toxicity Data, Average, Mean: 80.17%
Cells (nuclei count); n 9, 25 uM
  Toxicity Data, Average, Mean: 85.80%
Cells (nuclei count); n 9, 50 uM
  Toxicity Data, Average, Mean: 59.20%
SARS2; Exp 1 (SMW475), 1 uM
  Percentage Infection Relative to Appropriate DMSO Control with Avg Background Subtraction: 53.62% and 101.44% and 86.72%
SARS2; Exp 1 (SMW475), 5 uM
  Percentage Infection Relative to Appropriate DMSO Control with Avg Background Subtraction: 69.33% and 82.60% and 84.98%
SARS2; Exp 1 (SMW475), 10 uM
  Percentage Infection Relative to Appropriate DMSO Control with Avg Background Subtraction: 79.81% and 90.19% and 84.97%
SARS2; Exp 1 (SMW475), 50 uM
  Percentage Infection Relative to Appropriate DMSO Control with Avg Background Subtraction: 52.39% and 69.09% and 65.56%
SARS2; Exp 2 (SMW477), 1 uM
  Percentage Infection Relative to Appropriate DMSO Control with Avg Background Subtraction: 120.88% and 113.91% and 111.55%
SARS2; Exp 2 (SMW477), 5 uM
  Percentage Infection Relative to Appropriate DMSO Control with Avg Background Subtraction: 128.80% and 118.55% and 121.74%
SARS2; Exp 2 (SMW477), 10 uM
  Percentage Infection Relative to Appropriate DMSO Control with Avg Background Subtraction: 114.36% and 136.38% and 130.63%
SARS2; Exp 2 (SMW477), 25 uM
  Percentage Infection Relative to Appropriate DMSO Control with Avg Background Subtraction: 73.62% and 97.76% and 95.99%
SARS2; Exp 2 (SMW477), 50 uM
  Percentage Infection Relative to Appropriate DMSO Control with Avg Background Subtraction: 31.41% and 36.50% and 41.52%
SARS2; Exp 3 (SMW478), 5 uM
  Percentage Infection Relative to Appropriate DMSO Control with Avg Background Subtraction: 121.27% and 137.96% and 122.71%
SARS2; Exp 3 (SMW478), 10 uM
  Percentage Infection Relative to Appropriate DMSO Control with Avg Background Subtraction: 159.81% and 126.46% and 162.16%
SARS2; Exp 3 (SMW478), 25 uM
  Percentage Infection Relative to Appropriate DMSO Control with Avg Background Subtraction: 126.24% and 109.99% and 117.46%
SARS2; Exp 3 (SMW478), 50 uM
  Percentage Infection Relative to Appropriate DMSO Control with Avg Background Subtraction: 71.82% and 89.49% and 84.99%
SARS2
  Percentage Inhibition Average 1 μM: 28.78%
  Screening data (Relative infection to DMSO controls) Average 1 μM: 71.22
  Percentage Inhibition Average 5 μM: −9.77%
  Screening data (Relative infection to DMSO controls) Average 5 μM: 109.77
  Percentage Inhibition Average 10 μM: −20.53%
  Screening data (Relative infection to DMSO controls) Average 10 μM: 120.53
  Percentage Inhibition Average 25 μM: 24.68%
  Screening data (Relative infection to DMSO controls) Average 25 μM: 75.32
  Percentage Inhibition Average 50 μM: 39.69%
  Screening data (Relative infection to DMSO controls) Average 50 μM: 60.31
  Average (relative infection to DMSO over the 5 tested concentrations): 87.43
SARS2; n 9, 1 uM
  Infection Data, Average, Mean: 71.22%
SARS2; n 9, 5 uM
  Infection Data, Average, Mean: 109.77%
SARS2; n 9, 10 uM
  Infection Data, Average, Mean: 120.53%
SARS2; n 9, 25 uM
  Infection Data, Average, Mean: 75.32%
SARS2; n 9, 50 uM
  Infection Data, Average, Mean: 60.31%

## CCN(CC)CCN(Cc1cccs1)C(=O)c1cccs1 [SILCS34]
Cells (nuclei count)
  Relative cell count to DMSO controls, Average 1 μM: 102.47
  Relative cell count to DMSO controls, Average 5 μM: 99.62
  Relative cell count to DMSO controls, Average 10 μM: 91
  Relative cell count to DMSO controls, Average 25 μM: 89.42
  Relative cell count to DMSO controls, Average 50 μM: 67.85
  Relative cell count to DMSO controls, Average (for correlation analysis): 90.07
Cells (nuclei count); n 9, 1 uM
  Toxicity Data, Average, Mean: 102.47%
Cells (nuclei count); n 9, 5 uM
  Toxicity Data, Average, Mean: 99.62%
Cells (nuclei count); n 9, 10 uM
  Toxicity Data, Average, Mean: 91.00%
Cells (nuclei count); n 9, 25 uM
  Toxicity Data, Average, Mean: 89.42%
Cells (nuclei count); n 9, 50 uM
  Toxicity Data, Average, Mean: 67.85%
SARS2; Exp 1 (SMW475), 1 uM
  Percentage Infection Relative to Appropriate DMSO Control with Avg Background Subtraction: 84.46% and 79.06% and 78.77%
SARS2; Exp 1 (SMW475), 5 uM
  Percentage Infection Relative to Appropriate DMSO Control with Avg Background Subtraction: 83.89% and 91.52% and 85.89%
SARS2; Exp 1 (SMW475), 10 uM
  Percentage Infection Relative to Appropriate DMSO Control with Avg Background Subtraction: 120.42% and 77.92% and 112.44%
SARS2; Exp 1 (SMW475), 25 uM
  Percentage Infection Relative to Appropriate DMSO Control with Avg Background Subtraction: 73.54% and 67.42% and 88.43%
SARS2; Exp 1 (SMW475), 50 uM
  Percentage Infection Relative to Appropriate DMSO Control with Avg Background Subtraction: 98.27% and 86.62% and 67.73%
SARS2; Exp 2 (SMW477), 1 uM
  Percentage Infection Relative to Appropriate DMSO Control with Avg Background Subtraction: 117.81% and 129.29% and 121.32%
SARS2; Exp 2 (SMW477), 5 uM
  Percentage Infection Relative to Appropriate DMSO Control with Avg Background Subtraction: 137.43% and 146.89% and 126.80%
SARS2; Exp 2 (SMW477), 10 uM
  Percentage Infection Relative to Appropriate DMSO Control with Avg Background Subtraction: 142.94% and 144.38% and 155.80%
SARS2; Exp 2 (SMW477), 25 uM
  Percentage Infection Relative to Appropriate DMSO Control with Avg Background Subtraction: 109.38% and 111.61% and 103.44%
SARS2; Exp 2 (SMW477), 50 uM
  Percentage Infection Relative to Appropriate DMSO Control with Avg Background Subtraction: 62.30% and 66.46% and 58.63%
SARS2; Exp 3 (SMW478), 1 uM
  Percentage Infection Relative to Appropriate DMSO Control with Avg Background Subtraction: 120.13% and 101.31% and 117.84%
SARS2; Exp 3 (SMW478), 5 uM
  Percentage Infection Relative to Appropriate DMSO Control with Avg Background Subtraction: 108.72% and 96.17% and 137.98%
SARS2; Exp 3 (SMW478), 10 uM
  Percentage Infection Relative to Appropriate DMSO Control with Avg Background Subtraction: 127.49% and 93.45% and 116.79%
SARS2; Exp 3 (SMW478), 25 uM
  Percentage Infection Relative to Appropriate DMSO Control with Avg Background Subtraction: 164.75% and 165.91% and 139.33%
SARS2; Exp 3 (SMW478), 50 uM
  Percentage Infection Relative to Appropriate DMSO Control with Avg Background Subtraction: 145.01% and 171.02% and 138.34%
SARS2
  Percentage Inhibition Average 1 μM: −5.55%
  Screening data (Relative infection to DMSO controls) Average 1 μM: 105.55
  Percentage Inhibition Average 5 μM: −12.81%
  Screening data (Relative infection to DMSO controls) Average 5 μM: 112.81
  Percentage Inhibition Average 10 μM: −21.29%
  Screening data (Relative infection to DMSO controls) Average 10 μM: 121.29
  Percentage Inhibition Average 25 μM: −13.76%
  Screening data (Relative infection to DMSO controls) Average 25 μM: 113.76
  Percentage Inhibition Average 50 μM: 0.62%
  Screening data (Relative infection to DMSO controls) Average 50 μM: 99.38
  Average (relative infection to DMSO over the 5 tested concentrations): 110.56
SARS2; n 9, 1 uM
  Infection Data, Average, Mean: 105.55%
SARS2; n 9, 5 uM
  Infection Data, Average, Mean: 112.81%
SARS2; n 9, 10 uM
  Infection Data, Average, Mean: 121.29%
SARS2; n 9, 25 uM
  Infection Data, Average, Mean: 113.76%
SARS2; n 9, 50 uM
  Infection Data, Average, Mean: 99.38%
